These are literature values, as cited in patent US20230355898A1, “NEBULIZER AND NEBULIZED ANTI-VIRALS” (priority 2020, published 2023).

For orientation: IC50 means the concentration needed to halve the response being measured. As a reminder, the EC50 is the concentration giving half of the maximal effect. A word on the Log P: it is the decadic logarithm of the partition coefficient of the neutral form, usually between octanol and water.

Data set [1] concerns SARS-CoV-2. Particulars: for SARS-CoV-2 viral load measured by RT-qPCR of the viral N transcript: COVID-19 hamster model, Intraperitoneal (IP) administration; for prophylactic efficacy in reducing SARS-CoV-2 infection: hamsters, 50 mg/kg SC QD, virus intranasal or by association with nasally infected animals; for reduction in viral load or change in disease progression: Rosenke. Background: Quantitative PCR measures a nucleic acid by following its amplification.

Data set [2] deals with SARS-CoV-2 pseudoparticulates. Particulars: drug at human blood maximum concentrations in fluid and airway channels; Si, 2020.
The test system of data set [3] is SARS-CoV-2. Conditions: Vero 6, SARS-Cov-2, pretreatment; Si, 2020; read-out: Inhibition of infection IC50.
The test system of data set [4] is SARS-CoV-2 pseudoparticulates (pp). Particulars: Huh-7, SARS-CoV-2pp, concurrent treatment, Si, 2020.
Data set [5] has as its system SARS-CoV-2. Particulars: read-out: Viral Replication EC50 @ 48 hr, Vero 6, Concurrent, Wang, 2020.
The conditions of data set [6]: free base; PubChem.
Test in data set [7]: not given
The source holds these as a separate data set.

For data set [8] the following is noted: rat, in vivo.
Data set [9] concerns SARS-CoV-2. Particulars: Rhesus Macaque, Rosenke, 2020.
Setting [10] is: four-route infection on day 0, 6 mg/kg PO 12 18, 36, 60, 84 and 108 hours post-infection (therapeutic).
The mark [11] stands for this setting: four-route infection on day 0, 6 mg/kg PO on days −9, −2, and 5 (prophylactic).

Structures can show the parent of a compound that is named as a salt. Where two headings read alike, the source gives them in different places.

Turning to `CCN(CC)Cc1cc(Nc2ccnc3cc(Cl)ccc23)ccc1O.Cl.Cl` [ADQ hydrochloride], the “SARS-CoV-2 viral load measured by RT-qPCR of the viral N transcript” value in data set [1] (Si, 2020) is given as “able to reduce”. Besides, in [1], the “prophylactic efficacy in reducing SARS-CoV-2 infection” value is “effective”. The “Inhibition of SARS-CoV-2pp entry into LAC epithelial cells (qPCR of viral mRNA)” value (“Inhibition … (qPCR of viral mRNA)” for short) in data set [2] was “inhibited”.

Consider `CCN(CC)Cc1cc(Nc2ccnc3cc(Cl)ccc23)ccc1O` [ADQ, amodiaquine], for which the half-maximal inhibitory concentration (IC50) in data set [3] was 10.3 µM. Besides, the “reduction in viral load on day 4” value in [1] (Hamster, exposure of healthy animals to nasally infected animals on day 2, 50 mg/kg SC day 1 and days 2, 3, 4, Si, 2020) is given as 90% reduction in. The “reduction in viral load on day 4” value in [1] (Hamster, nasal infection on day 2, 50 mg/kg SC 1 day before infection and days 2, 3, 4, Si, 2020) is recorded as 70% reduction in. The “prophylactic efficacy in reducing SARS-CoV-2 infection” value in data set [1] is “exhibit prophylactic efficacy”. In data set [4], the “Inhibition of viral entry: % entry @ 1 μM” value (“Inhibition … % entry @ 1 μM” below) was 10% entry @1 μM and the “Inhibition of viral entry: % entry @ 5 μM” value (shortened to “Inhibition … % entry @ 5 μM”) is 30% entry @ 5 μM;. Under “human, in vivo, iv”, the T1/2 is 0.083 days. In addition, the V2 (in vivo, iv) is on record as 39 L.

As to `CCN(CC)CCCC(C)Nc1ccnc2cc(Cl)ccc12.O=P(O)(O)O.O=P(O)(O)O` (stereo not drawn) [CQ phosphate], the “Inhibition … (qPCR of viral mRNA)” value in data set [2] was “lack of efficacy”.

For `CCN(CC)CCCC(C)Nc1ccnc2cc(Cl)ccc12` (stereo not drawn) [CQ, chloroquine], the EC50 in data set [5] is 1.13 µM. Further, in [2], the “Inhibition … (qPCR of viral mRNA)” value is given as “lack of efficacy”. Also, in data set [4], the “Inhibition … % entry @ 1 μM” value is on record as 10% entry @ 1 μM and the “Inhibition … % entry @ 5 μM” value was 50% entry @ 5 μM;. In addition, where the note is “IV in humans”, the T1/2 was 23.7 days and the V2 was 7,973 L.

Consider `CCNCc1cc(Nc2ccnc3cc(Cl)ccc23)ccc1O` [DEAQ, desethylamodiaquine], for which the IC50 in data set [3] is 8.5 µM. The lipophilicity (Log P) in data set [6] is given as 2.3.

Take `CCN(CCO)CCCC(C)Nc1ccnc2cc(Cl)ccc12` (stereo not drawn) [HCQ sulfate, hydroxychloroquine sulfate]: the “SARS-CoV-2 viral load measured by RT-qPCR of the viral N transcript” value in data set [1] (Si, 2020) is on record as “ineffective”. Moreover, the “reduction in viral load on day 5” value in [1] (Hamster, exposure to nasally infected animals on day 2, 600 mg/kg IP day 1 and 50 mg/kg IP days 2, 3, 4, 5, Kapstein, 2020) is given as “ineffective”. Besides, the “reduction in viral load or change in disease progression” value in data set [1] (Hamster, nasal infection on day 1, 50 mg/kg IP 1 hr after infection and days 2, 3 (therapeutic), 2020, 50 mg/kg) is “ineffective”; in data set [1] (Hamster, nasal infection on day 2, 50 mg/kg IP 1 day before infection and days 2, 3, 4 (prophylactic), 2020, 50 mg/kg), “ineffective”. Besides, the “reduction in viral load on day 4” value in data set [1] (Hamster, nasal infection on day 2, 50 mg/kg IP 1 day before infection and days 2, 3, 4, Kapstein, 2020, 50 mg/kg) is “ineffective”. In addition, the “Inhibition … (qPCR of viral mRNA)” value in data set [2] is given as “lack of efficacy”. Further, the “clinical endpoints for asthma (Phase II)” value in [7] (nebulized) is reported as “did not meet its clinical endpoints”. The “tolerability of pulmonary doses” value in data set [7] (nebulized hypertonic 100 mg/mL, up to 20 mg QD) is on record as “well tolerated with minimal side effects”. The “lung drug concentrations, IT versus IV solution” value in [8] was “higher lung drug concentrations”. Besides, the “effect upon viral loads at days 3, 5, or 7, or disease pathology through post-mortem on day 7” value in data set [9] (setting [10]) and in data set [9] (setting [11]) was “ineffective” throughout.

With `CCN(CCO)CCCC(C)Nc1ccnc2cc(Cl)ccc12` (stereo not drawn) [HCQ, hydroxychloroquine], the “Inhibition … (qPCR of viral mRNA)” value in [2] is on record as “repeatedly failed”. Further, in data set [6], the “Log P” value is recorded as 3.9. In data set [4], the “Inhibition … % entry @ 1 μM” value is listed as 30% entry @ 1 μM and the “Inhibition … % entry @ 5 μM” value is listed as 50% entry @ 5 μM;. For the same compound, under “human, in vivo, iv”, the T1/2 was 26.2 days. In addition, the V2 (in vivo, iv) is reported as 26,711 L. Besides, in [9] (setting [10]), the “effect upon viral loads at days 3, 5, or 7, or disease pathology through post-mortem on day 7” value is on record as “No effect upon viral”. Besides, in [9] (setting [11]), the “effect upon viral loads at days 3, 5, or 7, or disease pathology through post-mortem on day 7” value is given as “No effect upon viral”.
